According to the NIST ThermoML archive (doi:10.1016/j.jct.2015.06.036):

Test: xn = mol fraction of the nth substance listed
Conditions: 101 kPa, Liquid; for viscosity: Falling or rolling sphere viscometry; for speed of sound: Sing-around technique in a fixed-path interferometer; for mass density: Vibrating tube method

CCn1cc[n+](C)c1.F[B-](F)(F)F [1-ethyl-3-methylimidazolium tetrafluoroborate] + CO
Conditions | mass density [kg/m3] | speed of sound [m/s] | viscosity [mPa·s]
278.15 K, x1 = 0.0499 | 896.8 | 1233 | 0.998
278.15 K, x1 = 0.0998 | 965.1 | 1283 | 1.43
278.15 K, x1 = 0.1498 | 1019.5 | 1336 | 1.92
278.15 K, x1 = 0.1998 | 1062.4 | 1384 | 2.52
278.15 K, x1 = 0.3002 | 1127.9 | 1465 | 4.08
278.15 K, x1 = 0.4004 | 1174.8 | 1523 | 6.45
278.15 K, x1 = 0.5001 | 1209.6 | 1565 | 9.84
278.15 K, x1 = 0.6004 | 1237.2 | 1597 | 15.3
278.15 K, x1 = 0.6987 | 1258.7 | 1623 | 24.6
278.15 K, x1 = 0.8005 | 1277.4 | 1644 | 38.9
278.15 K, x1 = 0.8486 | 1284.8 | 1653 | 47.9
278.15 K, x1 = 0.8987 | 1292.3 | 1661 | 61.5
278.15 K, x1 = 0.9476 | 1298.6 | 1669 | 76.5
278.15 K, x1 = 1 | 1305.3 | 1677 | 101
288.15 K, x1 = 0.0499 | 887.8 | 1204 | 0.848
288.15 K, x1 = 0.0998 | 956.3 | 1259 | 1.19
288.15 K, x1 = 0.1498 | 1010.9 | 1313 | 1.57
288.15 K, x1 = 0.1998 | 1053.8 | 1361 | 2.03
288.15 K, x1 = 0.3002 | 1119.4 | 1441 | 3.24
288.15 K, x1 = 0.4004 | 1166.5 | 1499 | 5.01
288.15 K, x1 = 0.5001 | 1201.4 | 1540 | 7.49
288.15 K, x1 = 0.6004 | 1229.1 | 1572 | 11.3
288.15 K, x1 = 0.6987 | 1250.7 | 1598 | 17.7
288.15 K, x1 = 0.8005 | 1269.5 | 1619 | 26.8
288.15 K, x1 = 0.8486 | 1276.9 | 1628 | 32.3
288.15 K, x1 = 0.8987 | 1284.5 | 1636 | 40.2
288.15 K, x1 = 0.9476 | 1290.9 | 1644 | 48.7
288.15 K, x1 = 1 | 1297.6 | 1653 | 62
298.15 K, x1 = 0.0499 | 878.7 | 1176 | 0.732
298.15 K, x1 = 0.0998 | 947.5 | 1233 | 1.01
298.15 K, x1 = 0.1498 | 1002.2 | 1289 | 1.32
298.15 K, x1 = 0.1998 | 1045.3 | 1337 | 1.69
298.15 K, x1 = 0.3002 | 1111 | 1418 | 2.66
298.15 K, x1 = 0.4004 | 1158.2 | 1475 | 4.03
298.15 K, x1 = 0.5001 | 1193.3 | 1516 | 5.91
298.15 K, x1 = 0.6004 | 1221.1 | 1548 | 8.69
298.15 K, x1 = 0.6987 | 1242.8 | 1575 | 13.3
298.15 K, x1 = 0.8005 | 1261.7 | 1596 | 19.5
298.15 K, x1 = 0.8486 | 1269.2 | 1605 | 22.9
298.15 K, x1 = 0.8987 | 1276.8 | 1613 | 28
298.15 K, x1 = 0.9476 | 1283.2 | 1621 | 33.2
298.15 K, x1 = 1 | 1290 | 1629 | 41
308.15 K, x1 = 0.0499 | 869.6 | 1147 | 0.642
308.15 K, x1 = 0.0998 | 938.7 | 1208 | 0.872
308.15 K, x1 = 0.1498 | 993.6 | 1265 | 1.13
308.15 K, x1 = 0.1998 | 1036.8 | 1314 | 1.44
308.15 K, x1 = 0.3002 | 1102.7 | 1394 | 2.23
308.15 K, x1 = 0.4004 | 1150 | 1451 | 3.33
308.15 K, x1 = 0.5001 | 1185.3 | 1493 | 4.79
308.15 K, x1 = 0.6004 | 1213.2 | 1525 | 6.91
308.15 K, x1 = 0.6987 | 1235 | 1551 | 10.4
308.15 K, x1 = 0.8005 | 1254 | 1573 | 14.9
308.15 K, x1 = 0.8486 | 1261.5 | 1581 | 17.1
308.15 K, x1 = 0.8987 | 1269.1 | 1589 | 20.5
308.15 K, x1 = 0.9476 | 1275.6 | 1598 | 23.8
308.15 K, x1 = 1 | 1282.4 | 1606 | 28.8
318.15 K, x1 = 0.0499 | 860.5 | 1119 | 0.57
318.15 K, x1 = 0.0998 | 929.8 | 1182 | 0.772
318.15 K, x1 = 0.1498 | 984.9 | 1241 | 0.979
318.15 K, x1 = 0.1998 | 1028.3 | 1290 | 1.24
318.15 K, x1 = 0.3002 | 1094.4 | 1371 | 1.9
318.15 K, x1 = 0.4004 | 1141.9 | 1428 | 2.81
318.15 K, x1 = 0.5001 | 1177.3 | 1470 | 3.98
318.15 K, x1 = 0.6004 | 1205.4 | 1502 | 5.65
318.15 K, x1 = 0.6987 | 1227.2 | 1528 | 8.37
318.15 K, x1 = 0.8005 | 1246.3 | 1550 | 11.7
318.15 K, x1 = 0.8486 | 1253.9 | 1559 | 13.2
318.15 K, x1 = 0.8987 | 1261.6 | 1567 | 15.7
318.15 K, x1 = 0.9476 | 1268 | 1575 | 17.8
318.15 K, x1 = 1 | 1274.9 | 1583 | 21.2
